Source: PubChem BioAssay (NCI)
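Tested at 5 concentrations; 48 h exposure; 96-well plates; endpoints linearly interpolated, else capped at highest concentration. Here, GI50 denotes the concentration required for 50% inhibition of growth. At the TGI there is no net growth.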

Key:
Experiment in all cases: NCI tumour cell line growth inhibition, 48 h
SK-MEL-28 melanoma = tested on: SK-MEL-28 melanoma
RXF 393 renal = tested on: RXF 393 renal
786-0 renal = tested on: 786-0 renal
IGROV1 ovarian = tested on: IGROV1 ovarian
HT29 colon = tested on: HT29 colon
MALME-3M melanoma = tested on: MALME-3M melanoma
NCI-H460 lung = tested on: NCI-H460 lung
U251 CNS = tested on: U251 CNS
SNB-75 CNS = tested on: SNB-75 CNS
COLO 205 colon = tested on: COLO 205 colon

Compound | GI50 (SK-MEL-28 melanoma) [µM] | TGI (SK-MEL-28 melanoma) [µM] | GI50 (RXF 393 renal) [µM] | TGI (RXF 393 renal) [µM] | TGI (786-0 renal) [µM] | TGI (IGROV1 ovarian) [µM] | TGI (HT29 colon) [µM] | TGI (MALME-3M melanoma) [µM] | TGI (NCI-H460 lung) [µM] | TGI (U251 CNS) [µM] | TGI (SNB-75 CNS) [µM] | TGI (COLO 205 colon) [µM] | GI50 (IGROV1 ovarian) [µM] | GI50 (HT29 colon) [µM] | GI50 (MALME-3M melanoma) [µM]
CNC(=O)c1cc(Oc2cccc3nc(NC(=O)Nc4ccc(F)cc4F)ccc23)ccn1 | 1.42 | > 50 | 1.24 | 2.99 | – | – | – | – | – | – | – | – | – | – | –
Nc1ccn(CCCC(c2ccccc2)P(=O)(O)O)c(=O)n1 (stereo unspecified) | – | > 100 | – | – | > 100 | > 100 | > 100 | > 100 | > 100 | > 100 | > 100 | > 100 | – | – | –
COCC1N=C(c2cc(OC)c(OC)c(OC)c2-c2cc3c(cc2[C@@H](C)O)OCO3)O[C@H]1c1ccccc1 (stereo partly specified) | – | > 100 | – | > 91.6 | – | > 100 | > 100 | > 100 | > 100 | > 100 | > 72.3 | > 100 | – | – | –
O=C1[C@H](O)[C@@H]2CCC[C@@]23CCCN13 | – | – | – | > 100 | > 100 | > 100 | > 100 | – | > 100 | > 100 | > 100 | > 100 | – | – | –
COc1cc(O)c2c(=O)c(OC)c(-c3ccc(OC)c(OC)c3)oc2c1.[Sn] | > 100 | > 100 | – | > 100 | > 100 | > 100 | > 100 | > 100 | > 100 | – | > 100 | > 100 | > 100 | > 100 | > 100
CC1(C)OC2OC(C(=O)c3ccccc3)C3OC(C)(C)OC3C2O1 (stereo unspecified) | – | – | – | > 100 | > 100 | > 100 | – | – | > 100 | > 100 | > 100 | > 100 | – | – | –
CC(C)(CO)NC(=O)c1cccs1 | – | > 100 | – | – | > 100 | > 100 | > 100 | > 100 | > 100 | > 100 | – | > 100 | – | – | –
O=C(NCCC1CN(S(=O)(=O)C(F)(F)F)c2ccccc21)OCc1ccccc1 (stereo unspecified) | – | > 100 | – | > 100 | > 100 | > 100 | > 100 | > 100 | > 100 | > 100 | – | > 100 | – | – | –
CC1=C(C(=O)NCCCN(CCO)CCO)CC(C(=O)NCCCN(CCO)CCO)=C(C)N1 | – | – | – | > 100 | > 100 | > 100 | > 100 | – | > 100 | > 100 | 80 | > 100 | – | – | –
N#CCN1CCCN(CC#N)CCN(CC#N)CCCN(CC#N)CC1 | – | > 100 | – | > 100 | > 100 | > 100 | – | > 100 | > 100 | > 100 | > 100 | > 100 | – | – | –
O=c1cc(NNc2cccc(F)c2)[nH]c(=S)[nH]1 | – | > 100 | – | – | > 100 | > 100 | > 100 | > 100 | > 100 | > 100 | – | > 100 | – | – | –
CN(C)CCNC(=O)c1cccc2[nH]c(-c3ccc(Cl)cc3)nc12 | – | 31.9 | – | 21.3 | – | 25.8 | 16.6 | 19.9 | 13.2 | 18 | 15.3 | 9.29 | – | – | –
COc1ccccc1[C@@H]1CCC2CC[C@@H](c3ccccc3OC)[N+]21Cc1ccccc1 (stereo partly specified) | – | 22.3 | – | 8.53 | 15.4 | 5.7 | 10.1 | 15.3 | – | 11.2 | 8.65 | 1.84 | – | – | –
CN(C)C1(c2cc3ccccc3s2)CCCCC1 | – | – | – | 84.6 | 49.8 | > 100 | > 100 | – | > 100 | > 100 | > 100 | > 100 | – | – | –
COc1c(C)c(C/C=C(\C)CCCCO)c(OC)c2ccccc12 | – | – | – | > 100 | > 100 | > 100 | 43.7 | – | 37.8 | > 100 | > 100 | > 100 | – | – | –
CC(=O)Nc1ccc(C(=O)n2[nH]c(C)c(/C=C3\C(=O)C=Cc4ccccc43)c2=O)cc1 | – | > 100 | – | – | > 100 | – | > 100 | 59.3 | > 100 | – | > 100 | > 100 | – | – | –
COC(=O)C1Cc2c([nH]c3ccccc23)-c2[nH]c3ccccc3c2CC(NC(C)=O)C(=O)N2CCCC2C(=O)N1 (stereo unspecified) | – | > 100 | – | > 100 | > 100 | > 100 | > 100 | – | > 100 | > 100 | > 100 | > 100 | – | – | –
COc1cccc2c1C(=O)c1c(O)c3c(c(O)c1C2=O)CC(O)(C(C)=O)CC3O (stereo unspecified) | – | 44.3 | – | 18.5 | – | 29.7 | 36.4 | 12.7 | 7.42 | 14.9 | 32.4 | 24.7 | – | – | –
